From patent US9113629B2, “4-amino-6-(4-substituted-phenyl)-picolinates and 6-amino-2-(4-substituted-phenyl)-pyrimidine-4-carboxylates and their use as herbicides” (DOW AGROSCIENCES LLC, priority 2013, dated 2015)

System: Key Broadleaf Weed and Crop Species
Assay: Post-emergent Test II herbicidal activity (Table 5)
Assay type: in vivo
Conditions: post-emergence, 336 h; ABUTH: velvetleaf (Abutilon theophrasti); application rate 70 g ai/ha; 14 days after application; read-out: Visual Growth Reduction (%) 14 Days After Application, ABUTH
Summary of the method: (§1)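 Post-emergence foliar spray, 187 L/ha, track sprayer at 43 cm above canopy. Carrier: acetone/water/IPA/DMSO/Atplus 411F/Triton X-155. Plants at 1st–2nd true leaf; subirrigated afterwards; % injury scored visually at 14 d.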

SMILES | pest or weed control at 70 g/ha [%]
COc1c(N)nc(-c2ccc(I)c(F)c2F)nc1C(=O)O [Compound 89] | 85 to 94

Same assay, conditions: post-emergence, 336 h; ABUTH: velvetleaf (Abutilon theophrasti); application rate 140 g ai/ha; 14 days after application; read-out: Visual Growth Reduction (%) 14 Days After Application, ABUTH

SMILES | pest or weed control at 140 g/ha [%]
COc1c(N)nc(-c2ccc(I)c(F)c2F)nc1C(=O)O [Compound 89] | 95 to 100

Same assay, conditions: post-emergence, 336 h; AMARE: redroot pigweed (Amaranthus retroflexus); application rate 70 g ai/ha; 14 days after application; read-out: Visual Growth Reduction (%) 14 Days After Application, AMARE

SMILES | pest or weed control at 70 g/ha [%]
COc1c(N)nc(-c2ccc(I)c(F)c2F)nc1C(=O)O [Compound 89] | 85 to 94

Same assay, conditions: post-emergence, 336 h; AMARE: redroot pigweed (Amaranthus retroflexus); application rate 140 g ai/ha; 14 days after application; read-out: Visual Growth Reduction (%) 14 Days After Application, AMARE

SMILES | pest or weed control at 140 g/ha [%]
COc1c(N)nc(-c2ccc(I)c(F)c2F)nc1C(=O)O [Compound 89] | 95 to 100

Same assay, conditions: post-emergence, 336 h; BRSNN: oilseed-rape, canola (Brassica napus); application rate 70 g ai/ha; 14 days after application; read-out: Visual Growth Reduction (%) 14 Days After Application, BRSNN

SMILES | pest or weed control at 70 g/ha [%]
COc1c(N)nc(-c2ccc(I)c(F)c2F)nc1C(=O)O [Compound 89] | 95 to 100

Same assay, conditions: post-emergence, 336 h; BRSNN: oilseed-rape, canola (Brassica napus); application rate 140 g ai/ha; 14 days after application; read-out: Visual Growth Reduction (%) 14 Days After Application, BRSNN

SMILES | pest or weed control at 140 g/ha [%]
COc1c(N)nc(-c2ccc(I)c(F)c2F)nc1C(=O)O [Compound 89] | 95 to 100

Same assay, conditions: post-emergence, 336 h; CHEAL: lambsquarters (Chenopodium album); application rate 70 g ai/ha; 14 days after application; read-out: Visual Growth Reduction (%) 14 Days After Application, CHEAL

SMILES | pest or weed control at 70 g/ha [%]
COc1c(N)nc(-c2ccc(I)c(F)c2F)nc1C(=O)O [Compound 89] | 95 to 100

Same assay, conditions: post-emergence, 336 h; CHEAL: lambsquarters (Chenopodium album); application rate 140 g ai/ha; 14 days after application; read-out: Visual Growth Reduction (%) 14 Days After Application, CHEAL

SMILES | pest or weed control at 140 g/ha [%]
COc1c(N)nc(-c2ccc(I)c(F)c2F)nc1C(=O)O [Compound 89] | 95 to 100

Same assay, conditions: post-emergence, 336 h; EPHHL: wild poinsettia (Euphorbia heterophylla); application rate 70 g ai/ha; 14 days after application; read-out: Visual Growth Reduction (%) 14 Days After Application, EPHHL

SMILES | pest or weed control at 70 g/ha [%]
COc1c(N)nc(-c2ccc(I)c(F)c2F)nc1C(=O)O [Compound 89] | 95 to 100

Same assay, conditions: post-emergence, 336 h; EPHHL: wild poinsettia (Euphorbia heterophylla); application rate 140 g ai/ha; 14 days after application; read-out: Visual Growth Reduction (%) 14 Days After Application, EPHHL

SMILES | pest or weed control at 140 g/ha [%]
COc1c(N)nc(-c2ccc(I)c(F)c2F)nc1C(=O)O [Compound 89] | 95 to 100

Same assay, conditions: post-emergence, 336 h; HELAN: sunflower (Helianthus annuus); application rate 70 g ai/ha; 14 days after application; read-out: Visual Growth Reduction (%) 14 Days After Application, HELAN

SMILES | pest or weed control at 70 g/ha [%]
COc1c(N)nc(-c2ccc(I)c(F)c2F)nc1C(=O)O [Compound 89] | 95 to 100

Same assay, conditions: post-emergence, 336 h; HELAN: sunflower (Helianthus annuus); application rate 140 g ai/ha; 14 days after application; read-out: Visual Growth Reduction (%) 14 Days After Application, HELAN

SMILES | pest or weed control at 140 g/ha [%]
COc1c(N)nc(-c2ccc(I)c(F)c2F)nc1C(=O)O [Compound 89] | 95 to 100

Same assay, conditions: post-emergence, 336 h; VIOTR: wild pansy (Viola tricolor); application rate 70 g ai/ha; 14 days after application; read-out: Visual Growth Reduction (%) 14 Days After Application, VIOTR

SMILES | pest or weed control at 70 g/ha [%]
COc1c(N)nc(-c2ccc(I)c(F)c2F)nc1C(=O)O [Compound 89] | 95 to 100

Same assay, conditions: post-emergence, 336 h; VIOTR: wild pansy (Viola tricolor); application rate 140 g ai/ha; 14 days after application; read-out: Visual Growth Reduction (%) 14 Days After Application, VIOTR

SMILES | pest or weed control at 140 g/ha [%]
COc1c(N)nc(-c2ccc(I)c(F)c2F)nc1C(=O)O [Compound 89] | 95 to 100

System: Key Grass and Sedge Weeds as well as Grass Crops
Assay: Post-emergent Test II herbicidal activity (Table 6)
Assay type: in vivo
Conditions: post-emergence, 336 h, CYPES: yellow nutsedge (Cyperus esculentus), 70 g ai/ha, read-out: Visual Growth Reduction (%) 14 Days After Application, CYPES
Summary of the method: as §1

SMILES | pest or weed control at 70 g/ha [%]
COc1c(N)nc(-c2ccc(I)c(F)c2F)nc1C(=O)O [Compound 89] | 45 to 59

Same assay, conditions: post-emergence, 336 h, CYPES: yellow nutsedge (Cyperus esculentus), 140 g ai/ha, read-out: Visual Growth Reduction (%) 14 Days After Application, CYPES

SMILES | pest or weed control at 140 g/ha [%]
COc1c(N)nc(-c2ccc(I)c(F)c2F)nc1C(=O)O [Compound 89] | 95 to 100

Same assay, conditions: post-emergence, 336 h, DIGSA: crabgrass (Digitaria sanguinalis), 70 g ai/ha, read-out: Visual Growth Reduction (%) 14 Days After Application, DIGSA

SMILES | pest or weed control at 70 g/ha [%]
COc1c(N)nc(-c2ccc(I)c(F)c2F)nc1C(=O)O [Compound 89] | 45 to 59

Same assay, conditions: post-emergence, 336 h, DIGSA: crabgrass (Digitaria sanguinalis), 140 g ai/ha, read-out: Visual Growth Reduction (%) 14 Days After Application, DIGSA

SMILES | pest or weed control at 140 g/ha [%]
COc1c(N)nc(-c2ccc(I)c(F)c2F)nc1C(=O)O [Compound 89] | 60 to 74

Same assay, conditions: post-emergence, 336 h, ECHCG: barnyardgrass (Echinochloa crus-galli), 70 g ai/ha, read-out: Visual Growth Reduction (%) 14 Days After Application, ECHCG

SMILES | pest or weed control at 70 g/ha [%]
COc1c(N)nc(-c2ccc(I)c(F)c2F)nc1C(=O)O [Compound 89] | 85 to 94

Same assay, conditions: post-emergence, 336 h, ECHCG: barnyardgrass (Echinochloa crus-galli), 140 g ai/ha, read-out: Visual Growth Reduction (%) 14 Days After Application, ECHCG

SMILES | pest or weed control at 140 g/ha [%]
COc1c(N)nc(-c2ccc(I)c(F)c2F)nc1C(=O)O [Compound 89] | 85 to 94

Same assay, conditions: post-emergence, 336 h, ORYSA: rice (Oryza sativa), crop, 70 g ai/ha, read-out: Visual Growth Reduction (%) 14 Days After Application, ORYSA

SMILES | pest or weed control at 70 g/ha [%]
COc1c(N)nc(-c2ccc(I)c(F)c2F)nc1C(=O)O [Compound 89] | 0 to 29

Same assay, conditions: post-emergence, 336 h, ORYSA: rice (Oryza sativa), crop, 140 g ai/ha, read-out: Visual Growth Reduction (%) 14 Days After Application, ORYSA

SMILES | pest or weed control at 140 g/ha [%]
COc1c(N)nc(-c2ccc(I)c(F)c2F)nc1C(=O)O [Compound 89] | 60 to 74

Same assay, conditions: post-emergence, 336 h, SETFA: giant foxtail (Setaria faberi), 70 g ai/ha, read-out: Visual Growth Reduction (%) 14 Days After Application, SETFA

SMILES | pest or weed control at 70 g/ha [%]
COc1c(N)nc(-c2ccc(I)c(F)c2F)nc1C(=O)O [Compound 89] | 85 to 94

Same assay, conditions: post-emergence, 336 h, SETFA: giant foxtail (Setaria faberi), 140 g ai/ha, read-out: Visual Growth Reduction (%) 14 Days After Application, SETFA

SMILES | pest or weed control at 140 g/ha [%]
COc1c(N)nc(-c2ccc(I)c(F)c2F)nc1C(=O)O [Compound 89] | 85 to 94

Same assay, conditions: post-emergence, 336 h, SORVU: grain sorghum (Sorghum vulgare), 70 g ai/ha, read-out: Visual Growth Reduction (%) 14 Days After Application, SORVU

SMILES | pest or weed control at 70 g/ha [%]
COc1c(N)nc(-c2ccc(I)c(F)c2F)nc1C(=O)O [Compound 89] | 85 to 94

Same assay, conditions: post-emergence, 336 h, SORVU: grain sorghum (Sorghum vulgare), 140 g ai/ha, read-out: Visual Growth Reduction (%) 14 Days After Application, SORVU

SMILES | pest or weed control at 140 g/ha [%]
COc1c(N)nc(-c2ccc(I)c(F)c2F)nc1C(=O)O [Compound 89] | 95 to 100

Same assay, conditions: post-emergence, 336 h, TRZSS (wheat, Triticum aestivum), crop, 70 g ai/ha, read-out: Visual Growth Reduction (%) 14 Days After Application, TRZSS

SMILES | pest or weed control at 70 g/ha [%]
COc1c(N)nc(-c2ccc(I)c(F)c2F)nc1C(=O)O [Compound 89] | 0 to 29

Same assay, conditions: post-emergence, 336 h, TRZSS (wheat, Triticum aestivum), crop, 140 g ai/ha, read-out: Visual Growth Reduction (%) 14 Days After Application, TRZSS

SMILES | pest or weed control at 140 g/ha [%]
COc1c(N)nc(-c2ccc(I)c(F)c2F)nc1C(=O)O [Compound 89] | 45 to 59

Same assay, conditions: post-emergence, 336 h, ZEAMX: maize, corn (Zea mays), crop, 70 g ai/ha, read-out: Visual Growth Reduction (%) 14 Days After Application, ZEAMX

SMILES | pest or weed control at 70 g/ha [%]
COc1c(N)nc(-c2ccc(I)c(F)c2F)nc1C(=O)O [Compound 89] | 45 to 59

Same assay, conditions: post-emergence, 336 h, ZEAMX: maize, corn (Zea mays), crop, 140 g ai/ha, read-out: Visual Growth Reduction (%) 14 Days After Application, ZEAMX

SMILES | pest or weed control at 140 g/ha [%]
COc1c(N)nc(-c2ccc(I)c(F)c2F)nc1C(=O)O [Compound 89] | 95 to 100

System: not given
Assay: not given
Conditions: not given

melting point [°C] | SMILES
119 to 121 | COc1c(N)nc(-c2ccc(I)c(F)c2F)nc1C(=O)O [Compound 89]
